From patent US20230365558A1, “TETRAHYDROISOQUINOLINE DERIVATIVE AND USE THEREOF” (MEDSHINE DISCOVERY INC., priority 2020, published 2023)
Read-outs that look alike come from different tables or passages of the source.

Tests used:
PRMT5 enzyme = PRMT5 enzyme (Homo sapiens (Human), UniProt O14744); assay: PRMT5 enzyme inhibitory activity assay (LANCE Ultra TR-FRET); format: biochemical
Experimental: Experimental objective: To test the inhibitory effect of compounds on PRMT5 enzyme activity
Experimental materials: PRMT5 enzyme
The plate was incubated at 25° C. for 30 min, then added with substrate, and reacted at 25° C. for 90 min. After 90 min, the detection reagent was added to the 384-well plate using PerkinElmer LANCE Ultra TR-FRET standard method to combine with the enzyme-substrate reaction product. […] Raw data were used to calculate the inhibition rate of the test compounds using the following equation: […]
(§1) The inhibition rates were imported into Excel separately to calculate the inhibition rates of compounds at different concentrations, and then XLfit software was used to plot inhibition curves and calculate relevant parameters, including minimum inhibition rate, maximum inhibition rate and IC50.

in vivo = assay: in vivo
Experimental: Experimental objective: To study the pharmacokinetic parameters of the compounds in CD-1 mice
Animal experimental design: Male CD-1 mice (28.08 to 29.01 g, 6 to 7 weeks old), purchased from Shanghai Family Planning Research Institute, n=2/group, 4 mice in total; blood collection time points (h): 0.083 (intravenous injection only), 0.25 (intragastric administration only), 0.5, 1, 2, 4, 8, 10 and 24; compound dose by tail vein injection: 1 mg/kg; single dose by intragastric administration: 5 mg/kg; intravenous and intragastric administration vehicles: 20% N,N-dimethylacetamide aqueous solution, 20% hydroxypropyl-β-cyclodextrin aqueous solution, 5% DMSO/50% PEG400/45% water for injection or 10% Solutol/30% PEG400/60% water for injection. All animals had free access to water during the experiment, fasted overnight before administration, and resumed food supply 4 hours after administration. The entire animal experiment complied with the Institutional Animal Care and Use Committee (IACUC) animal welfare.
Sample collection and storage: After administration, approximately 0.03 mL of blood was collected from the saphenous vein of the mouse at each time point into a pre-frozen commercial EDTA-K2 tube, and placed on wet ice until centrifugation. Blood samples were centrifuged at 4° C., 3,200 g for 10 min. Plasma was collected separately, transferred to a pre-labeled 96-well plate, fast frozen on dry ice, and stored at −70±10° C. until LC-MS/MS analysis.
Pre-treatment of plasma samples: 3 μL of unknown, standard curve, QC, diluted QC and single and double blank samples were taken and placed in 1.5 mL tubes, and 60 μL of internal standard solution (internal standard: Labetalol 100 ng/mL acetonitrile solution, double blank with the same volume of pure acetonitrile) was added. The samples were vortexed for at least 15 seconds, and centrifuged at 4° C., 12,000 g for 15 min. 50 μL of the supernatant was taken and placed on a clean 96-well plate, and 200 μL of 70% acetonitrile was added. The plate was vortex at 800 rpm for 10 min, and centrifuged at 4° C., 3,220 g for 5 min. 2.0 μL of the supernatant was taken for LC-MS/MS analysis. 10-fold sample dilution procedure: 2 μL of the sample was added to 18 μL of blank matrix; 2-fold sample dilution procedure: 2 μL of the sample was added to 2 μL of blank matrix. Plasma was processed in the same manner as undiluted samples. The linear range was 4.00 to 6000 nM. Plasma concentrations would be analyzed with Triple Quad 6500 Plus, and pharmacokinetic parameters would be calculated with Phoenix WinNonlin 6.3.

[1] = test system: Z-138 non-Hodgkin's lymphoma cells; assay: In vitro anti-proliferation assay of Z-138 cells (CellTiter-Glo, 6 days); format: cell-based, human; details: read-out: IC50 (nM), in vitro anti-proliferative activity on Z-138 tumor cells
Experimental: The plate was incubated at 37° C., CO2 and 100% relative humidity for 6 days. Samples were processed using Promega CellTiter-Glo Luminescent Cell Viability Assay Kit (Promega-G7571) standard method, and the luminescent signal was detected on a TECAN Spark®10M plate reader. Raw data were used to calculate the inhibition rate of the test compounds using the following equation: […]
as §1

[2] = test system: MDA-MB-468 human breast cancer cells; assay: Anti-proliferative activity on MDA-MB-468 cells (CellTiter-Glo, 7 days); format: cell-based; details: read-out: IC50 (nM), in vitro anti-proliferative activity on MDA-MB-468 tumor cells
Experimental: CellTiter-Glo (chemiluminescent cell viability detection reagent, purchased from Promega).
MDA-MB-468 cells were planted in a white 384-well plate with 40 μL of cell suspension per well, which contained 1000 MDA-MB-468 cells. The cell plate was cultured in a CO2 incubator overnight. […] 78 μL of culture medium was added to a middle plate, and then 2 μL of gradient diluted compound per well was transferred to the middle plate according to the corresponding position. After being thoroughly mixed, 10 μL per well was transferred to the cell plate. […] The cell plate was cultured in a CO2 incubator for 7 days. Another cell plate was prepared, and the signal value was read on the day of administration as the maximum value (Max value in the equation below) to participate in data analysis. 10 μL of chemiluminescent cell viability detection reagent per well was added to the cell plate, and the plate was incubated at room temperature for 10 min to stabilize the luminescent signal. A multi-label analyzer was used for reading. After the incubation of the cell plate with the compound was completed, 10 μL of chemiluminescent cell viability detection reagent per well was added to the cell plate, and the plate was incubated at room temperature for 10 min to stabilize the luminescent signal. A multi-label analyzer was used for reading.

[3] = test system: human mantle cell lymphoma Z-138 cells; details: Z-138 xenograft; for T/C (%) (Day 21) / TGI (%) (Day 21): 80 mg/kg PO BID × 21, Day 21; for RTV (Day 21) / Tumor volume (Day 21): 80 mg/kg PO BID × 21, Day 21, Mean ± SEM; for Tumor volume (Day 21) / Tumor volume (Day 0): n = 6; for Tumor volume (Day 0): Day 0 (at grouping), Mean ± SEM
[4] = test system: human breast cancer MDA-MB-468 cells; assay: Subcutaneous xenograft tumor BALB/c mouse model of human breast cancer MDA-MB-468 cells; format: in vivo; details: MDA-MB-468 xenograft
Experimental: Experimental materials: 6 to 8 weeks old Balb/c female mice
Routine digestion with trypsin-EDTA was performed twice a week for passaging.
Group administration was started when the average tumor volume reached 130 mm^3.

[5] = Hygroscopicity by dynamic vapor sorption (DVS); format: physicochemical; details: 25° C./80% RH
Experimental: (3) Dynamic Vapor Sorption (DVS) Method
Detailed DVS instrument information and parameters are shown in Table 5, and the classification of hygroscopicity evaluation is shown in Table 6:
Instrument: SMS DVS intrinsic Dynamic Vapor Sorption. The crystal form A of compound 46a (about 10 mg) was taken and placed in a DVS sample tray for testing.

[6] = male, CD-1, mouse, in vivo, iv, 1 mg/kg
[7] = male, CD-1, mouse, in vivo, po, 5 mg/kg
[8] = CD-1 mice, injection administration (1 mg/kg)
[9] = CD-1 mice, oral administration (5 mg/kg)
[10] = 100 mg/kg PO BID × 4 W, Day 28, Mean ± SEM

Sequence of PRMT5 enzyme (O14744 whole entry): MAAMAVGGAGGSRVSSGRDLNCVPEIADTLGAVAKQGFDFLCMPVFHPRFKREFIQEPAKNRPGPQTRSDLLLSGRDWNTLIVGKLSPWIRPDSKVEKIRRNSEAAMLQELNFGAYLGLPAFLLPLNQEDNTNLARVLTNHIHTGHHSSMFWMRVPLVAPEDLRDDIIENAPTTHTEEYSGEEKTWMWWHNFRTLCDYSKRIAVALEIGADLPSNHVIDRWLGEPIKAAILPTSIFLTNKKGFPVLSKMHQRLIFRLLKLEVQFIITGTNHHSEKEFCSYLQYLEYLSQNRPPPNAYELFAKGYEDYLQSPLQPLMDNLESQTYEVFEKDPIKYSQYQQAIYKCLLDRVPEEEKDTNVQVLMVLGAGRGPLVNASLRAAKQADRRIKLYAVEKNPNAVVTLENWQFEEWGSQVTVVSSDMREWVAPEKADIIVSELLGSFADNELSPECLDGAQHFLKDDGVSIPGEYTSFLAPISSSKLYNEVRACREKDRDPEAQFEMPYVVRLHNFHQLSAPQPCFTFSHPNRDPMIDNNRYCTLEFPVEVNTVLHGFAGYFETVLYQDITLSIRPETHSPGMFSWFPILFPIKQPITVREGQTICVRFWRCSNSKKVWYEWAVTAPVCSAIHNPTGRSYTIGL
Sequence of PRMT5 enzyme (Q9BQA1 whole entry partner): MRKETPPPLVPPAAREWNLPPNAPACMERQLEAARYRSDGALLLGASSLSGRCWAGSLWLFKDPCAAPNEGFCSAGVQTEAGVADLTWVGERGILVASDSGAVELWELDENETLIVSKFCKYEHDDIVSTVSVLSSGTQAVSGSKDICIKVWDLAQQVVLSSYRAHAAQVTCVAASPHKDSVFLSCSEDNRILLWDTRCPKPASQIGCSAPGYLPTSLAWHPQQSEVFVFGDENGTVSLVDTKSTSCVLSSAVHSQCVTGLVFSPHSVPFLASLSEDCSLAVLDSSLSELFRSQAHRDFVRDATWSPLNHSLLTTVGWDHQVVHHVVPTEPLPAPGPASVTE

Structure (SMILES)	IC50 ([1]; Homo sapiens, Z-138, 144 h) [nM]	IC50 ([2]; Homo sapiens, 168 h) [nM]	IC50 (PRMT5 enzyme) [nM]	T/C (%) (Day 21) [3]	TGI (%) (Day 21) [3]	RTV (Day 21) [3]	Tumor volume (Day 21) [3]	Tumor volume (Day 0) [3] [mm^3]	IC50 [1] [nM]	IC50 [2] [nM]	other results
O=C(NC[C@H](O)CN1CCc2ccccc2C1)c1cnc2c(c1)NC(=O)C1(CC1)O2 [Compound 8]	10	12	15	–	–	–	–	–	–	–	AUC (in vivo; [6]): 0.875 µM·h; clearance (in vivo; [6]): 53.3 mL/min/kg; half-life (in vivo; [6]): 54.6 min; AUC (in vivo; [7]): 1.03 µM·h; bioavailability (in vivo; [7]): 24.5%
O=C(NC[C@H](O)CN1CCc2ccccc2C1)c1cnc2c(c1)NC(=O)C1(CC1)C2 [Compound 39]	–	–	34	12.1	94.8	1.66 + 0.42	179 + 42 mm^3	108 ± 7	12	12	Clearance rate CL (in vivo; [8]): 33.6 mL/min/kg; Concentration integral AUC (in vivo; [8]): 1.214 µM·h; Half-life T1/2 (in vivo; [8]): 33 min; Bioavailability F (in vivo; [9]): 20.0%; Concentration integral AUC (in vivo; [9]): 1.208 µM·h
C[C@H](NC(=O)c1cnc2c(c1)NC(=O)C1(CC1)O2)[C@H](O)CN1CCc2ccccc2C1 [Compound 46a]	11	5	58	1.7	105.8	0.24 + 0.11	27 + 13 mm^3	107 ± 8	–	–	T/C (%) ([4]; 100 mg/kg PO BID × 4 W, Day 28): 33.29%; TGI (%) ([4]; 100 mg/kg PO BID × 4 W, Day 28): 107.01%; RTV (Day 28) [4, 10]: 0.88 ± 0.06; Tumor volume (Day 28) [4, 10]: 115 ± 13.8 mm^3; Tumor volume (Day 0) ([4]; Day 0 (at grouping), Mean ± SEM): 130 ± 10.5 mm^3
O=C(NC[C@H](O)CN1CCc2ccccc2C1)c1ccc2c(c1)NC(=O)[C@H]1C[C@@H]21 [Compound 49b]	–	–	26.2	–	–	–	–	–	13.1	4.2	–
C[C@H](NC(=O)c1cnc2c(c1)NC(=O)C1(CC1)O2)[C@H](O)CN1CCc2ccccc2C1 [crystal form A of compound 46a]	–	–	–	–	–	–	–	–	–	–	Hygroscopicity classification [5]: slightly hygroscopic; moisture absorption weight gain ΔW % [5]: 0.8%
